# Assay results as given in patent publication US20230270720A1, “MAVOGLURANT, A MGLUR5 ANTAGONIST, FOR USE IN THE TREATMENT IN THE REDUCTION OF OPIOID USE” (Novartis AG, priority 2020, published 2023).
# How the values were obtained:
# Sprague-Dawley rats [1] = test: Remifentanil intravenous self-administration model in Sprague-Dawley rats; type: in vivo, rat; settings: for rate of lever press (speed of lever pressing): vehicle 0.077±0.031, P>0.05
# morphine tolerant mice = test: Opiate tolerance test (hot plate) in the mouse; type: in vivo; settings: for increase of foot-licking latency as compared with animals receiving morphine from Day 1 to Day 6: morphine 32 mg/kg i.p. twice daily Day 1-6; for effect on foot-licking latency: morphine tolerant mice
# Sprague-Dawley rats [2] = test: Cue-induced reinstatement of remifentanil seeking in the rat; type: in vivo
# adult CD1 mice = settings: 20 mg/kg, i.p., cited from earlier work
# [3] = test system: rat model of drug dependence; settings: cited from earlier work
smiles,measurement,setting,value
"COC(=O)N1CC[C@@H]2[C@H]1CCC[C@@]2(O)C#Cc1cccc(C)c1 [Compound (I), (−)-(3aR,4S,7aR)-4-Hydroxy-4-m-tolylethynyl-octahydro-indole-1-carboxylic acid methyl ester]",average number of remifentanil infusions,Sprague-Dawley rats [1]; 3 mg/kg p.o. 30 min before one remifentanil 3.2 μg/kg/infusion session,did not significantly affect
same,rate of lever press (speed of lever pressing),Sprague-Dawley rats [1]; 3 mg/kg p.o. 30 min before session,0.048±0.019 responses/second/session
same,average number of remifentanil infusions,Sprague-Dawley rats [1]; 10 mg/kg p.o. 30 min before one remifentanil 3.2 μg/kg/infusion session,did not significantly affect
same,rate of lever press (speed of lever pressing),Sprague-Dawley rats [1]; 10 mg/kg p.o. 30 min before session,0.035±0.010 responses/second/session
same,average number of remifentanil infusions,Sprague-Dawley rats [1]; 30 mg/kg p.o. 30 min before one remifentanil 3.2 μg/kg/infusion session,did not significantly affect
same,rate of lever press (speed of lever pressing),Sprague-Dawley rats [1]; 30 mg/kg p.o. 30 min before session,0.026±0.007 responses/second/session
same,increase of foot-licking latency as compared with animals receiving morphine from Day 1 to Day 6,"morphine tolerant mice; 1 mg/kg p.o. 60 minutes before the test on Day 7, p<0.01",+44%
same,effect on foot-licking latency,morphine tolerant mice; 3 mg/kg p.o. 60 minutes before the test on Day 7,no significant effects
same,effect on foot-licking latency,morphine tolerant mice; 10 mg/kg p.o. 60 minutes before the test on Day 7,no significant effects
same,effect on cue-induced reinstatement (lever presses),Sprague-Dawley rats [2]; 3 mg/kg p.o. 30 minutes before the cue reinstatement session,No significant effect
same,number of active lever presses as compared with vehicle condition,"Sprague-Dawley rats [2]; 10 mg/kg p.o. 30 minutes before the cue reinstatement session, p<0.01",significantly decreased
same,number of inactive lever presses as compared with vehicle,"Sprague-Dawley rats [2]; 10 mg/kg p.o. 30 minutes before the cue reinstatement session, p<0.05",significantly decreased
"Cc1nc(C#Cc2cccnc2)cs1 [MTEP, 3-[(2-methyl-1,3-thiazol-4-yl)ethynyl]pyridine]",operant responding for morphine,adult CD1 mice; morphine 0.1 mg/kg/infusion,attenuated
same,cue-induced morphine-seeking after a period of forced abstinence,adult CD1 mice,attenuated
"Cc1cccc(C#Cc2ccccc2)n1 [Compound (III), 2-Methyl-6-(phenylethynyl)-pyridine, reference compound]",rate of lever press,"Sprague-Dawley rats [1]; rat, in vivo",0.039±0.011 responses per second
same,increase of foot-licking latency as compared with animals receiving morphine from Day 1 to Day 6,"morphine tolerant mice; 10 mg/kg p.o. 60 minutes before the test on Day 7, p<0.05",+32%
same,reduction of the self-administration (SA) of ketamine,[3]; dose dependently,75%
same,reduction of the self-administration (SA) of heroin,[3]; modestly,20%
same,number of active lever presses as compared with vehicle condition,"Sprague-Dawley rats [2]; rat, in vivo",significantly decreased
same,number of inactive lever presses as compared with vehicle,"Sprague-Dawley rats [2]; rat, in vivo",did not significantly affect
